Measured values: article PMC6934184, “Selective DNA-PKcs inhibition extends the therapeutic index of localized radiotherapy and chemotherapy” (The Journal of Clinical Investigation, 2019)

Target: T1, CDK8/cyclin C (Homo sapiens, UniProt P49336)
T1 construct: purchased Thermo Fisher Scientific (Life Technologies) SelectScreen
Experiment: SelectScreen LanthaScreen
Assay type: binding
Conditions: 1 µM
How it was run: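 Percent values come from Thermo SelectScreen profiling of NU5455, combining activity and binding assays. CSF1R was run in Z'LYTE format at Km app ATP, and CAMK1 in Adapta format with ATP listed at 10.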

T1 sequence (P49336 whole entry): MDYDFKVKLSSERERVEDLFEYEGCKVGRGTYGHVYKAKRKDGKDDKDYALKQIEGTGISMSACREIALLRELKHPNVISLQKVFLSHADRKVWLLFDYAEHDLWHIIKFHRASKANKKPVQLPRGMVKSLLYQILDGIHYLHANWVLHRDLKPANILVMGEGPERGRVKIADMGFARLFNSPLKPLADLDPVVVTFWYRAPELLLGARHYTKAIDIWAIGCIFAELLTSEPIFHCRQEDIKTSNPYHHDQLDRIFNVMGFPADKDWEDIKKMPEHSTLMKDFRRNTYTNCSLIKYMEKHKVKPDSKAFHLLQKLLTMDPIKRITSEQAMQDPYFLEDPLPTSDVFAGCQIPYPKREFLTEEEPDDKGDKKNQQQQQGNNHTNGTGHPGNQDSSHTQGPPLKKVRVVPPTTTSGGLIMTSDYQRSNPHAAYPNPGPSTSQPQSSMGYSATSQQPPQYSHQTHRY
T1 sequence (P24863 whole entry partner): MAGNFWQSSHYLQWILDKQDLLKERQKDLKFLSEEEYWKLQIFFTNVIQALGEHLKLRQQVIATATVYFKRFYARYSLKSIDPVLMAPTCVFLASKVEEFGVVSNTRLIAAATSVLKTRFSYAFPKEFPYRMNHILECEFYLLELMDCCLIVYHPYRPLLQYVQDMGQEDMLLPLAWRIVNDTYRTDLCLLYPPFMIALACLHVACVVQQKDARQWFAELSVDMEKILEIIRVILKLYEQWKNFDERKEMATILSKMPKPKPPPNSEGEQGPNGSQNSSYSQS

## CN(C(=O)CN1CCOCC1)c1ccc2sc3c(-c4cccc5c(=O)cc(N6CC7CCC(C6)O7)oc45)cccc3c2c1 [NU5455]
  % displacement: 0.1%
